In US5599825A, “Water-soluble methine compound and pharmaceutical composition for treatment of cancer comprising the same” (Fuji Photo Film Co., Ltd., priority 1994, dated 1997):

Tests used:
[1] = Solubility test 1: 5 mg in 5 ml ion-exchanged water, macroscopic (1 mg/ml); format: physicochemical; settings: room temperature; for Solubility 1 mg/mL: 5 minutes shaking; for dissolution in the above-described solubility tests: summary in words
Protocol: (§1) The solubility tests were conducted by the following methods of tests 1 and 2:
5 mg of a methine compound is fed into a test tube, to which 5 ml of ion-exchanged water is added, the resultant mixture is shaken at room temperature for 5 minutes, and the solubility thereof is macroscopically confirmed (1 mg/ml solution).

[2] = Solubility test 2: 5 mg in 0.5 ml ion-exchanged water, macroscopic (10 mg/ml); format: physicochemical; settings: room temperature, 5 minutes shaking
Protocol: as §1
5 mg of a methine compound is fed into a test tube, to which 0.5 ml of ion-exchanged water is added, the resultant mixture is shaken at room temperature for 5 minutes, and the solubility thereof is macroscopically confirmed (10 mg/ml solution).

[3] = Solubility in 5% glucose solution for injection, macroscopic (10 mg/ml); format: physicochemical; settings: room temperature, 5 minutes shaking
Protocol: The solubility of each of the compounds of the present invention synthesized in Example 1 in 5% glucose solution for injection was examined.
5 mg of a methine compound was fed into a test tube, to which 0.5 ml of 5% glucose solution for injection was added, the resultant mixture was shaken at room temperature for 5 minutes, and the solubility thereof was macroscopically confirmed (10 mg/ml solution).

[4] = system: human colonic epithelial carcinoma LS174T; assay: Activity against human colonic epithelial carcinoma LS174T in nude mouse (tumor inhibition); format: in vivo, human (transplanted in BALB/C nu/nu mice); settings: i.v.
Protocol: Activity of the present pharmaceutical compositions against human colonic epithelial carcinoma LS174T was determined by use of nude mouse as follows:
As the human colonic epithelial carcinoma cell lines LS174T, there was used the established line by trypsinizing piece of LS174T obtained from the operating theatre of the original adenocarcinoma of colon in such that the piece becomes suitable for cultivation. When this cultured cells LS174T are hypodermically injected to a nude mouse, the cells can be easily grown in the body of the nude mouse as a moderately to sufficiently differentiated human colonic epithelial carcinoma. The cells LS174T produce CEA in high level and can proliferate in hamster cheek pouches or immunodeprived mice, so that it has been proven that the cells LS174T have neoplastic properties.
BALB/C nu/nu mice (male, five weeks age) available from Charles River Japan Inc. were placed in an atmosphere having no pathogen. Tumors formed by the hypodermic injection of human colonic epithelial carcinoma cell lines LS174T into the mice were cut off under the aseptic condition, and the surrounding skin and connective tissue of the tumor tissues as well as the necrotic tissue located in the center of the tumor tissues were removed. The tumor tissues were Cut in the form of 3-5 mm square, and the resulting one tissue was charged into a needle for transplantation to hypodermically transplant it into the mouse. The resulting mice were randomly divided into control group (six mice) and treating group (six mice). The intravenous administration of the pharmaceutical composition into the treating group started next day. The amount and schedule of the administration were determined based on the experience, mainly the knowledge from the pretoxic-test data of LD 50 and LD 10.5% glucose solution or physiologic saline for injection was injected to the control group in the same amount as that to be intravenously injected to the treating group.
The pharmaceutical composition was dissolved in 5% glucose solution or physiologic saline for injection in such that the amount of the pharmaceutical composition contained in the glucose solution or physiologic saline is 5 ml per one kg of weight of the mouse to be injected so as to prepare an injection liquid. When the proliferation of tumor in the control group reached exponential growth phase and the size of the tumor became detectable by touch with hand, i.e., generally three weeks after the transplantation, the experiment was stopped. Then the tumor of each mouse was cut off and the weight of the resulting tumor was measured by use of chemical balance. Regarding each group, tumor inhibition percentage between the treating group and control group was calculated.

[5] = system: LOX, a human melanoma cell line; assay: Nude mice bearing human melanoma LOX (survival); format: in vivo, human (in male athymic Swiss nu/nu mouse); settings: i.p.
Protocol: Nude Mice Bearing Human Melanoma as a Model System
LOX, a human melanoma cell line, grown subcutaneously in nude mice was excised, trypsinized to yield a single cell suspension using a metal grid with a […]. Red blood cells were lysed by incubation with 0.17 molar ammonium chloride at 4° C. for 20 minutes. Five million viable trypan blue negative cells made up in 0.1 ml of Dulbecco modified Eagles' medium (DME) were injected into the peritoneal cavity of a male athymic Swiss nu/nu mouse. The control group and each treatment group consisted of 5 to 10 mice. Treatment was commenced the following day by intraperitoneal injection.
Ten control mice received 0.25 ml of 2% dextrose on those days the treated groups were injected with the compounds of this invention. The compounds of the General Formulas (I) to (II) used in this invention which were tested are listed in Table 6 below and the results obtained are shown in Table 6 of the accompanying drawings. T/C is the ratio, expressed as a percentage of the mean survival age of the treated group to the mean survival age of the untreated control group.

Solubility 1 mg/mL [1] | Solubility 10 mg/mL [2] | Solubility 10 mg/mL [3] | Compound | also measured
soluble | soluble | soluble | CCn1c(=Cc2sc3ccccc3[n+]2CCOCCOCCOCCOC)sc(=C2Sc3ccc4ccccc4c3N2C)c1=O [Compound 1-4] | Tumor Inhibition Ratio ([4]; 5 mg/kg days 1, 3, 7.5 mg/kg day 6, 10 mg/kg days 8, 10, 12.5 mg/kg days 13, 15, 17): 71.5%
soluble | suspension |  | CCn1c(=Cc2sc3c4ccccc4ccc3[n+]2CCOCCOCCOC)sc(=C2Sc3ccc4ccccc4c3N2C)c1=O [Compound 1-5] | 
soluble | suspension | soluble | CCn1c(=Cc2sc3ccccc3[n+]2CCOCCOCCOC)sc(=C2Sc3c(ccc4ccccc34)N2C)c1=O [Compound 1-8] | 
soluble | soluble | soluble | CCn1c(=Cc2sc3ccccc3[n+]2CCOCCOCCOC)sc(=C2Oc3ccc4ccccc4c3N2C)c1=O [Compound 1-10] | 
soluble | soluble | soluble | CCn1c(=Cc2sc3c4ccccc4ccc3[n+]2CCOCCOCCOC)sc(=C2SCCN2C)c1=O [Compound 1-14] | 
soluble | suspension | soluble | CCn1c(=Cc2sc3c4ccccc4ccc3[n+]2CCOCCOCCOC)sc(=CC=C2Sc3ccc4ccccc4c3N2C)c1=O [Compound 1-16] | 

The next lines start with the molecule.

Compound | Solubility 1 mg/mL [1] | Solubility 10 mg/mL [2] | Solubility 10 mg/mL [3] | also measured
CCn1c(=Cc2sc3ccccc3[n+]2CCOCCOCCOC)sc(=C2Sc3ccc4ccccc4c3N2C)c1=O [Compound 1-3] | soluble | soluble | soluble | Tumor Inhibition Ratio ([4]; 5 mg/kg day 1, 10 mg/kg days 3, 7, 13 mg/kg days 9, 13, 15, 17): 51.1%; T/C (mean survival age of treated group to untreated control group) ([5]; 7.5 mg/kg days 1, 2, 5, 7, 9, 13, 15, 20): 153%
CCn1c(=Cc2sc3ccccc3[n+]2CC)sc(=C2Sc3c(ccc4ccccc34)N2CCOCCOCCOC)c1=O [Compound 1-6, 3-ethyl-2-{[3-ethyl-5-(3-methoxyethoxyethoxyethylnaphtho[2,1-d]thiazolin-2-ylidene)]-4-oxothiazolidin-2-ylidenemethyl}benzothiazolium=chloride] | soluble | soluble |  | 
CC[n+]1c(C=c2sc(=C3Sc4c(ccc5ccccc45)N3C)c(=O)n2CCOCCOCCOC)sc2ccccc21 [Compound 1-7, 3-ethyl-2-{[3-methoxyethoxyethoxyethyl-5-(3-methylnaphtho[2,1-d]thiazolin-2-ylidene)]-4-oxothiazolidin-2-ylidenemethyl}benzothiazolium=chloride] | soluble | soluble | soluble | Tumor Inhibition Ratio ([4]; 5 mg/kg days 1, 17, 7.5 mg/kg day 3, 10 mg/kg days 6, 8, 10, 13): 83.0%; T/C (mean survival age of treated group to untreated control group) ([5]; 5 mg/kg days 1, 9, 15, 10 mg/kg days 2, 5, 7, 13): 129%
CCn1c(=Cc2sc3ccccc3[n+]2CCC2OCCCO2)sc(=C2Sc3ccc4ccccc4c3N2C)c1=O [Compound 1-9, 3-(1,3-dioxane-2-ethyl)-2-{[3-ethyl-5-(3-methylnaphtho[1,2-d]thiazolin-2-ylidene)]-4-oxothiazolidin-2-ylidenemethyl}benzothiazolium=chloride] | soluble | suspension |  | Tumor Inhibition Ratio ([4]; 3 mg/kg days 1, 4, 7, 1 mg/kg days 9, 11, 13, 18): 65.6%; T/C (mean survival age of treated group to untreated control group) ([5]; 5 mg/kg days 1, 13, 15, 10 mg/kg days 2, 5, 7, 15 mg/kg day 9): 153%
CCn1c(=Cc2sc3c4ccccc4ccc3[n+]2CCOCCOCCOC)sc(=C2Sc3ccccc3N2C)c1=O [Compound 1-11, 3-methoxyethoxyethoxyethyl-2-{[3-ethyl-5-(3-methylbenzothiazolin-2-ylidene)]-4-oxothiazolidin-2-ylidenemethyl}naphtho[2,1-d]thiazolium=chloride] | soluble | soluble | soluble | Tumor Inhibition Ratio ([4]; 8 mg/kg day 1, 10 mg/kg days 3, 6, 8, 10, 15, 17): 67.9%; T/C (mean survival age of treated group to untreated control group) ([5]; 5 mg/kg days 1, 15, 10 mg/kg days 2, 5, 7, 13, 15 mg/kg day 9): 129%
CCn1c(=Cc2sc3ccccc3[n+]2CCOCCOCCOC)sc(=C2Sc3ccccc3N2C)c1=O [Compound 1-12] | soluble | soluble | soluble | T/C (mean survival age of treated group to untreated control group) ([5]; 5 mg/kg day 1, 10 mg/kg days 2, 5, 7, 9, 13, 15): 124%
CCN1C(=O)C(=C2Sc3ccc4ccccc4c3N2C)SC1=Nc1scc[n+]1CCOCCOCCOC [Compound 1-15] | soluble | soluble | soluble | Tumor Inhibition Ratio ([4]; 10 mg/kg days 1, 3, 6, 8, 10, 13, 15, 20): 60.0%
CCn1c(=Cc2sc3ccccc3[n+]2CC)sc(=C2Sc3ccc4ccccc4c3N2C)c1=O [Compound S-1, reference compound] | suspension | suspension | suspension | dissolution in the above-described solubility tests [1]: not dissolved
CCn1c(=Cc2sc3ccccc3[n+]2CCOC)sc(=C2Sc3ccc4ccccc4c3N2C)c1=O [Compound S-2, reference compound] | suspension | suspension | suspension | dissolution in the above-described solubility tests [1]: not dissolved
CCn1c(=Cc2sc3ccccc3[n+]2CCOCCO)sc(=C2Sc3ccc4ccccc4c3N2C)c1=O [Compound S-3, reference compound] | suspension | suspension | suspension | dissolution in the above-described solubility tests [1]: not dissolved
